The text below walks through data of ChEMBL document CHEMBL1201862, “PubChem BioAssay data set” (2004).

Broadly, the AC50 is the midpoint of the concentration-response curve, whichever way the signal moves. A word on the IC50: it is the point on the concentration scale where inhibition reaches its midpoint. Usually EC50 stands for the concentration needed to bring the measured effect to its halfway point.

For assay [1], the target named is Cytochrome P450 2D6 (Homo sapiens, UniProt P10635).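 Also: CYP2D6 member of a cytochrome P450 panel assay.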
Assay [2] can be described thus: Luminescence Cell-Based Dose Retest to Confirm Inhibitors of Cancer Stem Cells. [Related pubchem assays (depositor defined):AID2717, AID2721]. In kind it is functional. Conditions: Homo sapiens.
Assay [3] addresses T1, Rac GTPase-activating protein 1 (Homo sapiens, UniProt Q9H0H5).
T1 sequence (Q9H0H5 whole entry): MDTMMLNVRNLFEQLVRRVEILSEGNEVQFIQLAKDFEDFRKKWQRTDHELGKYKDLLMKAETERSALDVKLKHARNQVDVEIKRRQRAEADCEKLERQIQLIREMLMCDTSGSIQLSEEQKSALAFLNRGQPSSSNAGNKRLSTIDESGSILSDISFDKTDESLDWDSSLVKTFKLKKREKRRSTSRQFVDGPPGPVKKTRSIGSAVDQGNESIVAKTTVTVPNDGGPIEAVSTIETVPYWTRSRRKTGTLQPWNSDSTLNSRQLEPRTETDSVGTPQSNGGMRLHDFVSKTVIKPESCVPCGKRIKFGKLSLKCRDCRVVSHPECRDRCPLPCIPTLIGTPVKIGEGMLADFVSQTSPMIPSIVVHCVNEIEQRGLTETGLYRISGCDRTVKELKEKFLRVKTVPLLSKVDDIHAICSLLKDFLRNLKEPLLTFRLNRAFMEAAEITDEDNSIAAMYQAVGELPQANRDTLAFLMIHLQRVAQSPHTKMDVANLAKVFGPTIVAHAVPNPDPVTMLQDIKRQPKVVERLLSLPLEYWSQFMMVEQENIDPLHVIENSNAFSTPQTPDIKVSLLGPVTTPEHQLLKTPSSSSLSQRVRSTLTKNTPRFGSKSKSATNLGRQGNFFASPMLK
Briefly: blockers of MgcRacGAP-driven Rac1 GTP hydrolysis – biochemical, ADP Hunter fluorescence, primary and confirmatory, confirmation (AID 624330). In kind it is functional.

The target in assay [4] is Cytochrome P450 2C19 (Homo sapiens, UniProt P33261). Briefly: Cytochrome panel assay with activity outcomes. Panel member name: p450-cyp2c19 Compounds with AC50 equal or less than 10 uM are considered active. In kind it is functional. Conditions: read-out: AC50.
For assay [5], the target named is Cytochrome P450 2C9 (Homo sapiens, UniProt P11712).
A short description of assay [6]: Luminescence Cell-Based Dose Response HTS to Identify Activators of Luciferase Translation or Activity in H4 […] Cells. [Related pubchem assays: 1829 (Project Summary), 1814 (Primary HTS)]. In kind it is functional.
Assay [7] deals with H4. Description: Luminescence Cell-Based Dose Response HTS to Identify Activators of 5'UTR Stem-Loop Driven Prion Protein mRNA Translation in H4 Neuroglioblastoma Cells. [Related pubchem assays: 1829 (Project Summary), 1814 (Primary HTS)]. The class given is functional. Conditions: Homo sapiens.
Assay [8] deals with T2, Cytochrome P450 1A2 (Homo sapiens, UniProt P05177).
T2 sequence (P05177 whole entry): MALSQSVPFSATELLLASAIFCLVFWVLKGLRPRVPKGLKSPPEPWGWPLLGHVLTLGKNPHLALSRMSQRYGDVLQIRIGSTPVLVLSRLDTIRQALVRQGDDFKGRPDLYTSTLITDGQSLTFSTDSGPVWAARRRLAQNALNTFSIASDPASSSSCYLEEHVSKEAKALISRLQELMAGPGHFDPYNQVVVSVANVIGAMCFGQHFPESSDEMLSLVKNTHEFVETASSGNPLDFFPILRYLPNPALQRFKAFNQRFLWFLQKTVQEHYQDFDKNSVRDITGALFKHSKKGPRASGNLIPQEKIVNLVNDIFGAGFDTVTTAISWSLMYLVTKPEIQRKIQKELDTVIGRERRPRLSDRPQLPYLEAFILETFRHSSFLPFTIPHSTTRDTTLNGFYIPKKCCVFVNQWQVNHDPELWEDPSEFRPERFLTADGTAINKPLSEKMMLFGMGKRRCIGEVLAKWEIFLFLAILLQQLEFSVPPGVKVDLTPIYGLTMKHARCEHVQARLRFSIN

The target in assay [9] is Cytochrome P450 3A4 (Homo sapiens, UniProt P08684).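 Also: CYP3A4 tested as one member of a cytochrome P450 panel screen.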
Assay [10] concerns Streptococcus sp. 'group A'. Briefly: Streptococcus pyogenes SK(-)GAS viability under kanamycin – luminescence, BacTiterGlo, confirmation, counter-screen for streptokinase expression inhibitor project, dose response (AID 1900). In kind it is functional, organism-based. (Counterscreens check selectivity or assay interference.)
For assay [11], the system named is Streptococcus. Description: GAS UMAA2166 growth inhibition – luminescence, BacTiterGlo, counter-screen for streptokinase expression inhibitor project, dose response (AID 1915).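 Also: potency for reduction of bacterial viability or growth.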 The class given is functional, organism-based.

Active and inactive are the calls of the source.

Cytochrome P450 3A4, sequence (P08684 whole entry): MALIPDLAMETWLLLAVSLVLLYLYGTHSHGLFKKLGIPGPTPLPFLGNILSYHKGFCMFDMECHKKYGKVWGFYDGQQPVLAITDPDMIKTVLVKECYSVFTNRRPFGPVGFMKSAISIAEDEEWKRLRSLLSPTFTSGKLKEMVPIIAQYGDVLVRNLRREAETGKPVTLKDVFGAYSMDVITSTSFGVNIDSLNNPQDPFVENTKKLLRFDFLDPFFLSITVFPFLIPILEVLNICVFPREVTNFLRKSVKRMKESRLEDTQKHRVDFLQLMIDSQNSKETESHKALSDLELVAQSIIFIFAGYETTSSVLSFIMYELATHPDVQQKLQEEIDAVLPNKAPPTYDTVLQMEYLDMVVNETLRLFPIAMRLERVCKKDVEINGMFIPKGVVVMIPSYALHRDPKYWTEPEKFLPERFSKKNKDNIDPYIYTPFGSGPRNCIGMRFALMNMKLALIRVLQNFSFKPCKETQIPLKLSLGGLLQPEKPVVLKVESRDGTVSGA
Cytochrome P450 2C19, sequence (P33261 whole entry): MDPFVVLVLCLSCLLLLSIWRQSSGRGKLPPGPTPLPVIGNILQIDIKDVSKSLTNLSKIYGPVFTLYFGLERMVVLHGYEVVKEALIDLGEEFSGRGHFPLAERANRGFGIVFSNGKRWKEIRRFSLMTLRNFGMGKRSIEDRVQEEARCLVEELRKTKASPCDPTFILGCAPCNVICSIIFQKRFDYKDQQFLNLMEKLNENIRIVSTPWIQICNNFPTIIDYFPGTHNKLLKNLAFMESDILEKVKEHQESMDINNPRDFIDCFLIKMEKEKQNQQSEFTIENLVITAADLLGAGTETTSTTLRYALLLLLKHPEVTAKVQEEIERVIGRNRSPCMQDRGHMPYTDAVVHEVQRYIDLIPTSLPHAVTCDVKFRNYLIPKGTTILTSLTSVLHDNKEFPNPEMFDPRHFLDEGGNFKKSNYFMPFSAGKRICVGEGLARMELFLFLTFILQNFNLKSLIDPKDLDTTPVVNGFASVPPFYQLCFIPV
Cytochrome P450 2D6, sequence (P10635 whole entry): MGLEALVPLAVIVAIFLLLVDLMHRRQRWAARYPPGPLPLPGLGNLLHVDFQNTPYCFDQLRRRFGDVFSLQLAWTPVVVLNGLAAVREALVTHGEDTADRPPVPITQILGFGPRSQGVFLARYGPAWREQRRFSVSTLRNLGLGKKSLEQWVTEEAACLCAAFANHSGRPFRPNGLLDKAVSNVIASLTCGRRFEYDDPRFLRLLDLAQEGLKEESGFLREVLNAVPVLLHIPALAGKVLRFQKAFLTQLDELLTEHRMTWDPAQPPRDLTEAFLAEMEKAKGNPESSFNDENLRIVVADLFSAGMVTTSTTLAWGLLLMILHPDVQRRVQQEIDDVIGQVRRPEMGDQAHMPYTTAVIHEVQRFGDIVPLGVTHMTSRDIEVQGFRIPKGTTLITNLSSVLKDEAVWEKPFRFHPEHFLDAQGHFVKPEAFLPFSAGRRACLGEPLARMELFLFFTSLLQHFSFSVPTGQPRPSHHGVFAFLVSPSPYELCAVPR
Cytochrome P450 2C9, sequence (P11712 whole entry): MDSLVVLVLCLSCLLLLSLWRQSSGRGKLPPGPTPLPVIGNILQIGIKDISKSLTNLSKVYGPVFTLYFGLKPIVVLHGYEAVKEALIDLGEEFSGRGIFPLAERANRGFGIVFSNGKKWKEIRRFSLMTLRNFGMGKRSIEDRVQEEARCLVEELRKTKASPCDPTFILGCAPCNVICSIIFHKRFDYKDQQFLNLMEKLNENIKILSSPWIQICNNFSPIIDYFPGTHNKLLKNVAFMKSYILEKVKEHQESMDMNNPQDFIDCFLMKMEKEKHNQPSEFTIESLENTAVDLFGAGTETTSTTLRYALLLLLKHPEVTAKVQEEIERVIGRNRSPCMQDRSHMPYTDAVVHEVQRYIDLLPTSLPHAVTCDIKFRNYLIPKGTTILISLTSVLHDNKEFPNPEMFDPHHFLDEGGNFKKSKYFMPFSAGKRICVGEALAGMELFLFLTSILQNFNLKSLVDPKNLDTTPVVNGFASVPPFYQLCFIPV

Take `CC(/C=N/NC(=O)Cc1cccs1)=C\c1ccco1`: the AC50 in assay [1] was 14.1 µM (inconclusive).

On to `O=C(Nc1ccc(O)c(-c2nc3ccccc3o2)c1)C1(c2ccc(Br)cc2)CCCC1`, for which the AC50 in assay [2] is > 195 µM (inactive). For the compound `Cn1c(=O)[nH]c(NCCc2ccc(O)cc2)c([N+](=O)[O-])c1=O`, the IC50 in assay [3] was 219 µM (active). For the compound `CN(C)S(=O)(=O)c1ccc2c(c1)/C(=C/c1cc3c([nH]1)CCCC3)C(=O)N2`, the figures for the AC50 in assay [4], in [5] and in assay [1] were 7.94 µM (inconclusive), 10 µM (inconclusive) and 31.6 µM (inconclusive), respectively. On to `Oc1c2c(nc3cc(-c4ccccc4Cl)nn13)CCS2`, for which the EC50 in assay [6] is 2.34 µM (active); in [7], 21.7 µM (active).

`CC=C(/C(=C/C)c1ccc(O)cc1)c1ccc(O)cc1` [DIENESTROL]: the AC50 in assay [1] and in assay [8] was 15.8 µM (inconclusive) each time. In the case of `O=C(NC(=S)Nc1cccc(Cl)c1N1CCCCC1)c1cccs1`, the AC50 in [2] is 2.08 µM (active). With `O=C(CCCCn1c(=S)[nH]c2ccsc2c1=O)NCc1ccco1`, the AC50 in assay [1] is 39.8 µM (inconclusive). On to `CCCOC(=O)c1c(NC(=O)/C=C/c2cnn(C)c2C)sc(C(=O)OCC)c1C`, for which the AC50 in assay [4] is 10 µM (inconclusive); in assay [5], 39.8 µM (inconclusive); in [9] it was 15.8 µM (inconclusive); in assay [8], 17.8 µM (inconclusive). With `CC(=O)Oc1ccc(C#C/C=C2\c3ccccc3C(=O)N2c2ccccc2)cc1`, in assay [2], the AC50 was 2.25 µM (active). For the compound `Cc1ccc(C2CC(C(F)(F)F)n3nc(C(=O)NCCN4CCOCC4)cc3N2)cc1` (stereo not drawn), the figures for the AC50 in assay [5] and in assay [8] were 12.6 µM (inconclusive) and 1 µM (inconclusive), respectively. On to `CCOC(=O)c1[nH]c(C(=O)O)c(CCN(CC)CC)c1C`, for which the half-maximal activity concentration (AC50) was 3.98 µM (inconclusive) in [1] and 39.8 µM (inconclusive) in [8]. Regarding `CC[C@H]1OC(=O)[C@H](C)[C@@H](O[C@H]2C[C@@](C)(OC)[C@@H](O)[C@H](C)O2)[C@H](C)[C@@H](O[C@@H]2O[C@H](C)C[C@H](N(C)C)[C@H]2O)[C@](C)(O)C[C@@H](C)C(=NOCOCCOC)[C@H](C)[C@@H](O)[C@]1(C)O`, the EC50 in assay [10] and in assay [11] was < 0.06 µM (active) in each case. As to `Cc1c(C)n(CCc2ccccc2)c2ncnc(NCCCN(C)C)c12`, in [2], the AC50 is 3.51 µM (active). As to `COc1ccc(N2CCN(c3nc(Nc4ccc(F)cc4)nc(OC)n3)CC2)cc1`, the AC50 in assay [5] was 3.55 µM (inconclusive); in [9] it was 3.16 µM (inconclusive); in assay [8], 3.16 µM (inconclusive). Regarding `COc1cccc2[nH]c(C(=O)NN)c(N)c12`, the IC50 in assay [3] was 99.4 µM (active). Regarding `CCN(CC)S(=O)(=O)c1ccc(C)c(NC(=O)CN2CCN(Cc3ccccc3)CC2)c1`, the IC50 in assay [3] is 84.8 µM (active). As for `COC(=O)C1=C(N)Oc2cc(C)n(CC3CCCO3)c(=O)c2C1c1ccccc1OC` (stereo not drawn), the half-maximal activity concentration (AC50) in [4] is 22.4 µM (inconclusive); in assay [5] it was 28.2 µM (inconclusive).

Take `C=CCNCC(O)COc1ccc(C(C)=O)cc1OC` (stereo not drawn): in assay [3], the IC50 was 131 µM (active).

Take `COc1cc(/C=N\N=C2/SC(CC(=O)O)C(=O)N2c2ccc(O)cc2)ccc1O` (stereo not drawn): the IC50 in [3] was 78.1 µM (active). Turning to `OCCNCCSc1nc(C2CCCCC2)n(-c2ccccc2Cl)n1`, the IC50 in assay [3] was 120 µM (active). As to `N=C1c2ccccc2CN1NC(=O)c1ccc(F)cc1`, the AC50 is 28.2 µM (inconclusive) in [4] and 17.8 µM (inconclusive) in [5]. Consider `CC(C)NC(=O)CSc1nnc(C2CC2)n1-c1ccccc1`, for which the AC50 in assay [5] is 31.6 µM (inconclusive); in [9], 25.1 µM (inconclusive). For the compound `O=C(Nc1ccnc(-c2cccnc2)n1)c1ccccc1Cl`, the AC50 is 14.1 µM (inconclusive) in assay [4] and 11.2 µM (inconclusive) in assay [1]. Regarding `Cc1nn(-c2ccccc2)c(Cl)c1C(=O)Nc1c(C)n(C)n(-c2ccccc2)c1=O`, the AC50 is 20 µM (inconclusive) in [5] and 5.01 µM (inconclusive) in assay [8]. As for `COc1ccc2c(c1OC)C(=O)N1c3ccccc3SC21` (stereo not drawn), the values for the EC50 in [6] and in assay [7] were 0.124 µM (active) and 0.179 µM (active), respectively.

For the compound `CC1Cc2ccccc2N1C(=O)CSc1nnnn1C(C)C` (stereo not drawn), the AC50 in assay [5] is 14.1 µM (inconclusive); in assay [9] it was 15.8 µM (inconclusive); in [8], 15.8 µM (inconclusive). As to `CCc1nnc(SCc2ccc(OC(C)C)cc2)n1N`, the AC50 in [5] is 0.00562 µM (inconclusive); in [9], 14.1 µM (inconclusive); in assay [8], 15.8 µM (inconclusive). With `COC(=O)c1cc(Br)c(=O)n(CCN2CCCC2)c1`, the AC50 is 39.8 µM (inconclusive) in assay [4], 39.8 µM (inconclusive) in assay [5], 17.8 µM (inconclusive) in assay [1] and 12.6 µM (inconclusive) in [8]. As for `COc1cc2c(cc1N)-c1ccc(N)cc1C2=O`, the IC50 in assay [3] is 12.3 µM (active). Same read-out and setting: then `O=C(NC(=S)Nc1ccc(O)cc1)C1CCCC1`, with 29.6 µM (active). Regarding `CC1(C)CCC[C@]2(C)[C@H]3Cc4cc(O)ccc4O[C@]3(C)CC[C@@H]12`, the AC50 in assay [2] is 4.75 µM (active). As to `O=C(O)C1CSC(c2ccco2)N1` (stereo not drawn), in assay [3], the IC50 is 70.6 µM (active).

Take `Cc1ccc(C(=O)CSC2=C(C#N)C(c3ccco3)C3=C(O)CC(C)(C)CC3=N2)cc1` (stereo not drawn): the AC50 in assay [2] was 2.49 µM (active). As for `COC(=O)c1ccc(NC(=S)N2CCN(Cc3cccc(C)c3)CC2)cc1`, the AC50 in assay [1] was 35.5 µM (inconclusive). On to `Cc1sc2ncnc(N/N=C/c3ccc(O)cc3)c2c1C`, for which the IC50 in assay [3] is 37.6 µM (active). `CN1CCN(c2ccc(NC(=O)c3ccc(C#N)cc3F)cc2Cl)CC1`: the AC50 in assay [2] was 11.9 µM (active).

Take `CC/C(=N\O)c1ccc(O)c(OC)c1`: the IC50 in [3] is 45.2 µM (active). As for `COc1ccccc1CNc1cc(-c2c(C)noc2C)ncn1`, the AC50 is 25.1 µM (inconclusive) in assay [4], 25.1 µM (inconclusive) in [1] and 39.8 µM (inconclusive) in assay [9]. As for `O=C(NCCN1CCOCC1)c1ccc2ccccc2c1`, the values for the AC50 in assay [1] and in assay [8] were 15.8 µM (inconclusive) and 31.6 µM (inconclusive), respectively.

For `Cc1nc(SCC(=O)c2ccc(F)cc2)c([N+](=O)[O-])[nH]1`, the AC50 in assay [5] was 20 µM (inconclusive). Regarding `CCCCNc1ncnc2c1cnn2-c1ccccc1`, the EC50 in assay [7] was 27.1 µM (active).

Consider `O=C(O)c1nnsc1-c1ccc(-c2snnc2C(=O)O)cc1`, for which, in assay [5], the half-maximal activity concentration (AC50) was 7.94 µM (inconclusive). On to `COC(=O)N1CCC[C@@]2(CCN(C(=O)Nc3cccc(F)c3)C2)C1`, for which the AC50 was 39.8 µM (inconclusive) in assay [5], 12.6 µM (inconclusive) in assay [9] and 15.8 µM (inconclusive) in assay [8]. `O=C(O)c1cc(N/N=C/c2c(O)ccc3ccccc23)ccc1Cl`: the IC50 in assay [3] was 35.7 µM (active). On to `c1nc(NC2CC2)c2cc(-c3ccoc3)ccc2n1`, for which the AC50 in [4] is 20 µM (inconclusive); in assay [1], 39.8 µM (inconclusive); in assay [9], 5.01 µM (inconclusive).
